{
  "source": "patent US8546395B2",
  "about": "“6-cycloamino-3-(1H-pyrrolo[2,3-b]pyridin-4-yl)imidazo[1,2-b]pyridazine derivatives, preparation thereof and therapeutic use thereof” (Sanofi, priority 2008, dated 2013)",
  "note": "Where a name gives a salt, the structure may show the parent alone.",
  "data": [
    {"tested_on": "not given", "assay": "not given", "conditions": "not given", "values": [
      {"compound": "Fc1ccc(-c2nc3ccc(N4CCN[C@H](c5ccccc5)C4)nn3c2-c2ccnc3[nH]ccc23)cc1", "note": "(as salt: HCl) [Compound 24, (R)-2-(4-Fluorophenyl)-6-[3-phenylpiperazin-1-yl]-3-(1H-pyrrolo[2,3-b]pyridin-4-yl)imidazo[1,2-b]pyridazine]", "melting point": "215 °C (dec.)"},
      {"compound": "Fc1ccc(-c2nc3ccc(N4CCN[C@@H](c5ccccc5)C4)nn3c2-c2ccnc3[nH]ccc23)cc1", "note": "(as salt: HCl) [Compound 25, (S)-2-(4-Fluorophenyl)-6-[3-phenylpiperazin-1-yl]-3-(1H-pyrrolo[2,3-b]pyridin-4-yl)imidazo[1,2-b]pyridazine]", "melting point": "215 °C (dec.)"},
      {"compound": "Cc1cc(N2CCNC(C)(C)C2)nn2c(-c3ccnc4[nH]ccc34)c(-c3cccc(F)c3)nc12", "note": "[Compound 9, 6-(3,3-Dimethylpiperazin-1-yl)-2-(3-fluorophenyl)-8-methyl-3-(1H-pyrrolo[2,3-b]pyridin-4-yl)imidazo[1,2-b]pyridazine]", "melting point": "270 to 273 °C"},
      {"compound": "Cc1cc(N2CCNC(C)(C)C2)nn2c(-c3ccnc4[nH]ccc34)c(-c3ccc(F)cc3)nc12", "note": "[Compound 10, 6-(3,3-Dimethylpiperazin-1-yl)-2-(4-fluorophenyl)-8-methyl-3-(1H-pyrrolo[2,3-b]pyridin-4-yl)imidazo[1,2-b]pyridazine]", "melting point": "> 300 °C"},
      {"compound": "C[C@@H]1CN(c2ccc3nc(-c4ccc(F)cc4)c(-c4ccnc5[nH]ccc45)n3n2)C[C@H](C)N1", "note": "[Compound 11, 6-[(cis)-3,5-Dimethylpiperazin-1-yl]-2-(4-fluorophenyl)-3-(1H-pyrrolo[2,3-b]pyridin-4-yl)imidazo[1,2-b]pyridazine]", "melting point": "288 to 290 °C"},
      {"compound": "Cc1cc(N2CCN(CCO)CC2)nn2c(-c3ccnc4[nH]ccc34)c(-c3cccc(F)c3)nc12", "note": "[Compound 12, 2-{4-[2-(3-Fluorophenyl)-8-methyl-3-(1H-pyrrolo[2,3-b]pyridin-4-yl)imidazo[1,2-b]pyridazin-6-yl]piperazin-1-yl}ethanol]", "melting point": "201 to 203 °C"},
      {"compound": "Cc1cc(N2CCN(CCO)CC2)nn2c(-c3ccnc4[nH]ccc34)c(-c3ccc(F)cc3)nc12", "note": "[Compound 13, 2-{4-[2-(4-Fluorophenyl)-8-methyl-3-(1H-pyrrolo[2,3-b]pyridin-4-yl)imidazo[1,2-b]pyridazin-6-yl]piperazin-1-yl}ethanol]", "melting point": "239 to 242 °C"},
      {"compound": "CC(C)N1CCN(c2ccc3nc(-c4ccc(F)cc4)c(-c4ccnc5[nH]ccc45)n3n2)CC1", "note": "[Compound 14, 2-(4-Fluorophenyl)-6-(4-isopropylpiperazin-1-yl)-3-(1H-pyrrolo[2,3-b]pyridin-4-yl)imidazo[1,2-b]pyridazine]", "melting point": "271 to 273 °C"},
      {"compound": "Cc1cc(N2CCN(C(C)C)CC2)nn2c(-c3ccnc4[nH]ccc34)c(-c3ccc(F)cc3)nc12", "note": "[Compound 15, 2-(4-Fluorophenyl)-6-(4-isopropylpiperazin-1-yl)-8-methyl-3-(1H-pyrrolo[2,3-b]pyridin-4-yl)imidazo[1,2-b]pyridazine]", "melting point": "285 to 291 °C"},
      {"compound": "Cc1cc(N2CCNC3(CCCC3)C2)nn2c(-c3ccnc4[nH]ccc34)c(-c3ccc(F)cc3)nc12", "note": "[Compound 18, 6-(6,9-Diazaspiro[4.5]dec-9-yl)-2-(4-fluorophenyl)-8-methyl-3-(1H-pyrrolo[2,3-b]pyridin-4-yl)imidazo[1,2-b]pyridazine]", "melting point": "293 to 299 °C"},
      {"compound": "CC(C)(CO)N1CCN(c2ccc3nc(-c4ccc(F)cc4)c(-c4ccnc5[nH]ccc45)n3n2)CC1", "note": "[Compound 19, 2-{4-[2-(4-Fluorophenyl)-3-(1H-pyrrolo[2,3-b]pyridin-4-yl)imidazo[1,2-b]pyridazin-6-yl]piperazin-1-yl}-2-methylpropan-1-ol]", "melting point": "> 250 °C"},
      {"compound": "Cc1cc(N2CCN(CC(C)(C)O)CC2)nn2c(-c3ccnc4[nH]ccc34)c(-c3cccc(F)c3)nc12", "note": "[Compound 21, 1-{4-[2-(3-Fluorophenyl)-8-methyl-3-(1H-pyrrolo[2,3-b]pyridin-4-yl)imidazo[1,2-b]pyridazin-6-yl]piperazin-1-yl}-2-methylpropan-2-ol]", "melting point": "> 270 °C"},
      {"compound": "Cc1cc(N2CCN(CC(C)(C)O)CC2)nn2c(-c3ccnc4[nH]ccc34)c(-c3ccc(F)cc3)nc12", "note": "[Compound 22, 1-{4-[2-(4-Fluorophenyl)-8-methyl-3-(1H-pyrrolo[2,3-b]pyridin-4-yl)imidazo[1,2-b]pyridazin-6-yl]piperazin-1-yl}-2-methylpropan-2-ol]", "melting point": "265 to 268 °C"},
      {"compound": "CC(C)(O)CCN1CCN(c2ccc3nc(-c4ccc(F)cc4)c(-c4ccnc5[nH]ccc45)n3n2)CC1", "note": "[Compound 23, 4-{4-[2-(4-Fluorophenyl)-3-(1H-pyrrolo[2,3-b]pyridin-4-yl)imidazo[1,2-b]pyridazin-6-yl]piperazin-1-yl}-2-methylbutan-2-ol]", "melting point": "73 to 75 °C"},
      {"compound": "Cc1cc(N2CCNC(c3ccccc3)C2)nn2c(-c3ccnc4[nH]ccc34)c(-c3ccc(F)cc3)nc12", "note": "(centres unmarked) [Compound 26, 2-(4-Fluorophenyl)-8-methyl-6-[3-phenylpiperazin-1-yl]-3-(1H-pyrrolo[2,3-b]pyridin-4-yl)imidazo[1,2-b]pyridazine]", "melting point": "253 to 257 °C"},
      {"compound": "Fc1ccc(-c2nc3ccc(N4CCN(Cc5ccccc5)CC4)nn3c2-c2ccnc3[nH]ccc23)cc1", "note": "[Compound 27, 6-(4-Benzylpiperazin-1-yl)-2-(4-fluorophenyl)-3-(1H-pyrrolo[2,3-b]pyridin-4-yl)imidazo[1,2-b]pyridazine]", "melting point": "274 to 278 °C"},
      {"compound": "CN1C[C@@H]2CN(c3ccc4nc(-c5ccc(F)cc5)c(-c5ccnc6[nH]ccc56)n4n3)C[C@@H]2C1", "note": "[Compound 28, (cis)-2-(4-Fluorophenyl)-6-(5-methylhexahydropyrrolo[3,4-c]pyrrol-2(1H)-yl)-3-(1H-pyrrolo[2,3-b]pyridin-4-yl)imidazo[1,2-b]pyridazine]", "melting point": "238 to 239 °C"},
      {"compound": "OCCN1C[C@@H]2CN(c3ccc4nc(-c5ccc(F)cc5)c(-c5ccnc6[nH]ccc56)n4n3)C[C@@H]2C1", "note": "[Compound 30, (cis)-2-{5-[2-(4-Fluorophenyl)-3-(1H-pyrrolo[2,3-b]pyridin-4-yl)imidazo[1,2-b]pyridazin-6-yl]hexahydropyrrolo[3,4-c]pyrrol-2(1H)-yl}ethanol]", "melting point": "175 to 180 °C"},
      {"compound": "Cc1cc(N2C[C@H]3CN(CCO)C[C@H]3C2)nn2c(-c3ccnc4[nH]ccc34)c(-c3ccc(F)cc3)nc12", "note": "[Compound 31, (cis)-2-{5-[2-(4-Fluorophenyl)-8-methyl-3-(1H-pyrrolo[2,3-b]pyridin-4-yl)imidazo[1,2-b]pyridazin-6-yl]hexahydropyrrolo[3,4-c]pyrrol-2(1H)-yl}ethanol]", "melting point": "271 to 275 °C"},
      {"compound": "Cc1cc(N2C[C@H]3CCCN(C)[C@H]3C2)nn2c(-c3ccnc4[nH]ccc34)c(-c3ccc(F)cc3)nc12", "note": "[Compound 32, 2-(4-Fluorophenyl)-8-methyl-6-((4aR,7aR)-1-methyloctahydro-6H-pyrrolo[3,4-b]pyridin-6-yl)-3-(1H-pyrrolo[2,3-b]pyridin-4-yl)imidazo[1,2-b]pyridazine]", "melting point": "> 260 °C"},
      {"compound": "Cc1cc(N2C[C@@H]3CCCN(C)[C@@H]3C2)nn2c(-c3ccnc4[nH]ccc34)c(-c3ccc(F)cc3)nc12", "note": "[Compound 33, 2-(4-Fluorophenyl)-8-methyl-6-((4aS,7aS)-1-methyloctahydro-6H-pyrrolo[3,4-b]pyridin-6-yl)-3-(1H-pyrrolo[2,3-b]pyridin-4-yl)imidazo[1,2-b]pyridazine]", "melting point": "> 260 °C"},
      {"compound": "CN1C[C@@H]2C[C@H]1CN2c1ccc2nc(-c3ccc(F)cc3)c(-c3ccnc4[nH]ccc34)n2n1", "note": "[Compound 34, 2-(4-Fluorophenyl)-6-((1S,4S)-5-methyl-2,5-diazabicyclo[2.2.1]hept-2-yl)-3-(1H-pyrrolo[2,3-b]pyridin-4-yl)imidazo[1,2-b]pyridazine]", "melting point": "148 to 168 °C"}
    ]},
    {"molecular_target": "T1, casein kinase 1 epsilon (CK1 epsilon) (Homo sapiens, UniProt P49674)", "T1 construct": "Invitrogen Corporation (as an alternative)", "T1 sequence (P49674 whole entry)": "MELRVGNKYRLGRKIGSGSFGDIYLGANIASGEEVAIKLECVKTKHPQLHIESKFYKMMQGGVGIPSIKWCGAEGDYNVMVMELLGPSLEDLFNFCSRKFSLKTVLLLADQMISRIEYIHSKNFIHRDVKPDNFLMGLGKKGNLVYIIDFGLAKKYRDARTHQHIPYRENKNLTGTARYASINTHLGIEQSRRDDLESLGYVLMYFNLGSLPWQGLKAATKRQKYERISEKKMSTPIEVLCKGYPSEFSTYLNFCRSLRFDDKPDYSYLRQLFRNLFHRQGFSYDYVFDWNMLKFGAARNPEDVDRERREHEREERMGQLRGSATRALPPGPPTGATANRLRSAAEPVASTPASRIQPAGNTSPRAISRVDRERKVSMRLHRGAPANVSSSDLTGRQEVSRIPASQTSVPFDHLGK", "assay": "Filter-plate assay of ATP-33P for CK1 epsilon inhibitors (phosphorylation of casein)", "assay_type": "biochemical", "conditions": "casein substrate, ATP-33P with 10 μM cold ATP, 2 hours at ambient temperature", "description": "The capacity of the compounds of the invention to inhibit the phosphorylation of casein by casein kinase 1 epsilon and delta may be evaluated according to the procedure described in US 2005/0131012.\nFilter-Plate Assay of ATP-^33P for the Screening of CK1 Epsilon Inhibitors:\nThe effect of the compounds on inhibition of the phosphorylation of casein by the enzyme casein kinase 1 epsilon (CK1 epsilon) is measured, using a casein assay with filtration of ATP-^33P in vitro.\nCasein kinase 1 epsilon (0.58 mg/ml) is obtained via fermentation and purification processes performed according to methods that are well known to those skilled in the art, or may also be obtained from Invitrogen Corporation™ (human CK1 epsilon).\nThe compounds are tested at five different concentrations so as to generate IC50 values, i.e. the concentration at which a compound is capable of inhibiting the enzymatic activity by 50%, or alternatively the percentage of inhibition at a concentration of 10 micromolar.\n“U”-bottomed Falcon plates are prepared by placing 5 μL of solutions of the compounds according to the invention at concentrations of 10, 1, 0.1, 0.01 or 0.001 μM in various wells. The solutions of the compounds according to the invention at these various concentrations are prepared by diluting in a test buffer (50 mM Tris, pH 7.5, […], 2 mM DTT and 1 mM EGTA) a stock solution in DMSO at a concentration of 10 mM. Next, 5 μL of dephosphorylated casein are added to a final concentration of 0.2 μg/μL, 20 μl of CK1 epsilon to a final concentration of 3 ng/μl, and 20 μl of ATP-^33P to a final concentration of 0.02 μCi/μl mixed with cold ATP (10 μM final—approximately 2×10^6 CPM per well). The final total test volume per well is equal to 50 μl.\nThe “U”-bottomed Falcon® test plate mentioned above is vortexed, and then incubated at ambient temperature for 2 hours. After 2 hours, the reaction is stopped by adding an ice-cold solution of 65 μl of ATP (2 mM) prepared in test buffer.\n100 μl of the reaction mixture are then transferred from the “U”-bottomed Falcon® plate into Millipore® MAPH filter plates, preimpregnated with 25 μl of ice-cold 100% TCA. […]\nThe plates are left to dry overnight at ambient temperature. […] The radiation emitted by each well is then measured for 2 minutes in a Packard® Topcount NXT scintillation counter, in which the values of CPM/well are measured.\nThe percentage inhibition of the capacity of the enzyme to phosphorylate the substrate (casein) is determined for each concentration of compound tested. These inhibition data expressed as percentages are used to calculate the IC50 value for each compound compared with the controls.\nThe kinetic studies determined the KM value for ATP as being 21 μM in this test system.", "units": {"IC50": "nM"}, "values": [
      {"compound": "Cc1nc2ccc(N3C[C@@H](C)N[C@@H](C)C3)nn2c1-c1ccnc2[nH]ccc12", "note": "[Compound 3, 6-[(cis)-3,5-Dimethylpiperazin-1-yl]-2-methyl-3-(1H-pyrrolo[2,3-b]pyridin-4-yl)-imidazo[1,2-b]pyridazine]", "IC50": 303}
    ]}
  ]
}
